Data published in PubChem BioAssay AID1919000 (Molecular Pharmacology Branch, DTP, NCI, 2023).
Blank lines part the entries; values can stand above or below the compound they belong to.

Test system: 653999-131-R-J2-PDC complex spheroids, growth % test/control
Assay: Anticancer human tumor 653999-131-R-J2-PDC patient-derived lung adenocarcinoma cell line growth inhibition [AhR]
Details: for IC50: curve of first compound; for viability, T/C: stronger effect = lower value
Procedure, shortened: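 Agents were dosed in half-log steps down from roughly clinical Cmax, or from 10 microM where Cmax was unknown, alone and with AhR antagonists. Read-out: percent test/control growth of tumor spheroids containing HUVEC and MSC stromal cells.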

[1] = second compound 0.1 µM, first compound 0.0316 µM
[2] = second compound 0.1 µM, first compound 0.1 µM
[3] = second compound 0.1 µM, first compound 0.316 µM
[4] = second compound 0.1 µM, first compound 1 µM
[5] = second compound 0.1 µM, first compound 3.16 µM
[6] = second compound 0.1 µM, first compound 10 µM
[7] = second compound 0.316 µM, first compound 0.0316 µM
[8] = second compound 0.316 µM, first compound 0.1 µM
[9] = second compound 0.316 µM, first compound 0.316 µM
[10] = second compound 0.316 µM, first compound 1 µM
[11] = second compound 0.316 µM, first compound 3.16 µM
[12] = second compound 0.316 µM, first compound 10 µM
[13] = second compound 1 µM, first compound 0.0316 µM
[14] = second compound 1 µM, first compound 0.1 µM
[15] = second compound 1 µM, first compound 0.316 µM
[16] = second compound 1 µM, first compound 1 µM
[17] = second compound 1 µM, first compound 3.16 µM
[18] = second compound 1 µM, first compound 10 µM
[19] = second compound 3.16 µM, first compound 0.0316 µM
[20] = second compound 3.16 µM, first compound 0.1 µM
[21] = second compound 3.16 µM, first compound 0.316 µM
[22] = second compound 3.16 µM, first compound 1 µM
[23] = second compound 3.16 µM, first compound 3.16 µM
[24] = second compound 3.16 µM, first compound 10 µM
[25] = second compound 10 µM, first compound 0.0316 µM
[26] = second compound 10 µM, first compound 0.1 µM
[27] = second compound 10 µM, first compound 0.316 µM
[28] = second compound 10 µM, first compound 1 µM
[29] = second compound 10 µM, first compound 3.16 µM
[30] = second compound 10 µM, first compound 10 µM
[31] = second compound 0.1 µM, first compound 0.00949 µM
[32] = second compound 0.1 µM, first compound 0.03 µM
[33] = second compound 0.1 µM, first compound 0.0949 µM
[34] = second compound 0.1 µM, first compound 0.3 µM
[35] = second compound 0.316 µM, first compound 0.00949 µM
[36] = second compound 0.316 µM, first compound 0.03 µM
[37] = second compound 0.316 µM, first compound 0.0949 µM
[38] = second compound 0.316 µM, first compound 0.3 µM
[39] = second compound 1 µM, first compound 0.00949 µM
[40] = second compound 1 µM, first compound 0.03 µM
[41] = second compound 1 µM, first compound 0.0949 µM
[42] = second compound 1 µM, first compound 0.3 µM
[43] = second compound 3.16 µM, first compound 0.00949 µM
[44] = second compound 3.16 µM, first compound 0.03 µM
[45] = second compound 3.16 µM, first compound 0.0949 µM
[46] = second compound 3.16 µM, first compound 0.3 µM
[47] = second compound 10 µM, first compound 0.00949 µM
[48] = second compound 10 µM, first compound 0.03 µM
[49] = second compound 10 µM, first compound 0.0949 µM
[50] = second compound 10 µM, first compound 0.3 µM
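Note: spheroids exposed to agents for seven days.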
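Throughout, for viability, T/C: 100% = DMSO vehicle control viability.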

IC50 (second compound 0.1 µM): > 10 µM | IC50 (second compound 0.316 µM): > 10 µM | IC50 (second compound 1 µM): > 10 µM | IC50 (second compound 3.16 µM): > 10 µM | IC50 (second compound 10 µM): > 10 µM
SMILES: CC1(C)CCC(CN2CCN(c3ccc(C(=O)NS(=O)(=O)c4ccc(NCC5CCOCC5)c([N+](=O)[O-])c4)c(Oc4cnc5[nH]ccc5c4)c3)CC2)=C(c2ccc(Cl)cc2)C1 + Cc1ccccc1N=Nc1ccc(NC(=O)c2ccnn2C)c(C)c1
viability, T/C [1]: 100% | viability, T/C [2]: 99.1% | viability, T/C [3]: 103% | viability, T/C [4]: 95.1% | viability, T/C [5]: 97.7% | viability, T/C [6]: 68.7% | viability, T/C [7]: 88.8% | viability, T/C [8]: 90.6% | viability, T/C [9]: 97.7% | viability, T/C [10]: 86% | viability, T/C [11]: 92.1% | viability, T/C [12]: 64.7% | viability, T/C [13]: 99% | viability, T/C [14]: 93.1% | viability, T/C [15]: 89% | viability, T/C [16]: 99.4% | viability, T/C [17]: 91.7% | viability, T/C [18]: 73.8% | viability, T/C [19]: 99.5% | viability, T/C [20]: 90.2% | viability, T/C [21]: 94.3% | viability, T/C [22]: 90% | viability, T/C [23]: 85.6% | viability, T/C [24]: 80.8% | viability, T/C [25]: 84% | viability, T/C [26]: 94.7% | viability, T/C [27]: 83.9% | viability, T/C [28]: 88.9% | viability, T/C [29]: 81% | viability, T/C [30]: 80.5%

IC50 (second compound 0.1 µM): > 3 µM | IC50 (second compound 0.316 µM): > 3 µM | IC50 (second compound 1 µM): > 3 µM | IC50 (second compound 3.16 µM): > 3 µM | IC50 (second compound 10 µM): > 3 µM
SMILES: CCN(c1cc(-c2ccc(CN3CCOCC3)cc2)cc(C(=O)NCc2c(C)cc(C)[nH]c2=O)c1C)C1CCOCC1 + Cc1ccccc1N=Nc1ccc(NC(=O)c2ccnn2C)c(C)c1
viability, T/C [31]: 92.9% | viability, T/C [32]: 102% | viability, T/C [33]: 97.9% | viability, T/C [34]: 103% | viability, T/C (second compound 0.1 µM, first compound 0.949 µM): 97.8% | viability, T/C (second compound 0.1 µM, first compound 3 µM): 92.7% | viability, T/C [35]: 93.2% | viability, T/C [36]: 95.6% | viability, T/C [37]: 95.5% | viability, T/C [38]: 95.3% | viability, T/C (second compound 0.316 µM, first compound 0.949 µM): 93.3% | viability, T/C (second compound 0.316 µM, first compound 3 µM): 92.5% | viability, T/C [39]: 91.6% | viability, T/C [40]: 95.2% | viability, T/C [41]: 89% | viability, T/C [42]: 91.8% | viability, T/C (second compound 1 µM, first compound 0.949 µM): 88.3% | viability, T/C (second compound 1 µM, first compound 3 µM): 93% | viability, T/C [43]: 102% | viability, T/C [44]: 96.1% | viability, T/C [45]: 92.8% | viability, T/C [46]: 89.5% | viability, T/C (second compound 3.16 µM, first compound 0.949 µM): 86.3% | viability, T/C (second compound 3.16 µM, first compound 3 µM): 84% | viability, T/C [47]: 82.1% | viability, T/C [48]: 80.8% | viability, T/C [49]: 81.6% | viability, T/C [50]: 86.1% | viability, T/C (second compound 10 µM, first compound 0.949 µM): 78.8% | viability, T/C (second compound 10 µM, first compound 3 µM): 79.9%

IC50 (second compound 0.1 µM): > 0.1 µM | IC50 (second compound 0.316 µM): > 0.1 µM | IC50 (second compound 1 µM): > 0.1 µM | IC50 (second compound 3.16 µM): > 0.1 µM | IC50 (second compound 10 µM): > 0.1 µM
SMILES: Cn1ncnc1C1c2n[nH]c(=O)c3cc(F)cc(c23)NC1c1ccc(F)cc1 (stereo not given) + Cc1ccccc1N=Nc1ccc(NC(=O)c2ccnn2C)c(C)c1
viability, T/C (second compound 0.1 µM, first compound 0.000316 µM): 106% | viability, T/C (second compound 0.1 µM, first compound 0.001 µM): 84.6% | viability, T/C (second compound 0.1 µM, first compound 0.00316 µM): 102% | viability, T/C (second compound 0.1 µM, first compound 0.01 µM): 92.3% | viability, T/C [1]: 99.9% | viability, T/C [2]: 98% | viability, T/C (second compound 0.316 µM, first compound 0.000316 µM): 94.3% | viability, T/C (second compound 0.316 µM, first compound 0.001 µM): 111% | viability, T/C (second compound 0.316 µM, first compound 0.00316 µM): 104% | viability, T/C (second compound 0.316 µM, first compound 0.01 µM): 95% | viability, T/C [7]: 91.5% | viability, T/C [8]: 92.8% | viability, T/C (second compound 1 µM, first compound 0.000316 µM): 103% | viability, T/C (second compound 1 µM, first compound 0.001 µM): 96.7% | viability, T/C (second compound 1 µM, first compound 0.00316 µM): 104% | viability, T/C (second compound 1 µM, first compound 0.01 µM): 108% | viability, T/C [13]: 93.3% | viability, T/C [14]: 95.6% | viability, T/C (second compound 3.16 µM, first compound 0.000316 µM): 93.4% | viability, T/C (second compound 3.16 µM, first compound 0.001 µM): 105% | viability, T/C (second compound 3.16 µM, first compound 0.00316 µM): 106% | viability, T/C (second compound 3.16 µM, first compound 0.01 µM): 94.9% | viability, T/C [19]: 101% | viability, T/C [20]: 103% | viability, T/C (second compound 10 µM, first compound 0.000316 µM): 86.2% | viability, T/C (second compound 10 µM, first compound 0.001 µM): 104% | viability, T/C (second compound 10 µM, first compound 0.00316 µM): 106% | viability, T/C (second compound 10 µM, first compound 0.01 µM): 95% | viability, T/C [25]: 109% | viability, T/C [26]: 87.3%

IC50 (second compound 0.1 µM): > 10 µM | IC50 (second compound 0.316 µM): > 10 µM | IC50 (second compound 1 µM): > 10 µM | IC50 (second compound 3.16 µM): > 10 µM | IC50 (second compound 10 µM): > 10 µM
SMILES: NS(=O)(=O)OCC1CC(n2ccc3c(NC4CCc5ccccc54)ncnc32)CC1O (stereo not given) + Cc1ccccc1N=Nc1ccc(NC(=O)c2ccnn2C)c(C)c1
viability, T/C [1]: 111% | viability, T/C [2]: 120% | viability, T/C [3]: 118% | viability, T/C [4]: 124% | viability, T/C [5]: 88.9% | viability, T/C [6]: 64.7% | viability, T/C [7]: 114% | viability, T/C [8]: 105% | viability, T/C [9]: 123% | viability, T/C [10]: 129% | viability, T/C [11]: 72.7% | viability, T/C [12]: 61.3% | viability, T/C [13]: 115% | viability, T/C [14]: 119% | viability, T/C [15]: 124% | viability, T/C [16]: 124% | viability, T/C [17]: 63.3% | viability, T/C [18]: 61.4% | viability, T/C [19]: 125% | viability, T/C [20]: 109% | viability, T/C [21]: 142% | viability, T/C [22]: 93.4% | viability, T/C [23]: 61.8% | viability, T/C [24]: 62.3% | viability, T/C [25]: 129% | viability, T/C [26]: 118% | viability, T/C [27]: 115% | viability, T/C [28]: 63.7% | viability, T/C [29]: 56.7% | viability, T/C [30]: 60%

IC50 (second compound 0.1 µM): > 0.3 µM | IC50 (second compound 0.316 µM): > 0.3 µM | IC50 (second compound 1 µM): > 0.3 µM | IC50 (second compound 3.16 µM): > 0.3 µM | IC50 (second compound 10 µM): > 0.3 µM
SMILES: Nc1ncn(C2CC(O)C(CO)S2)c(=O)n1 (stereo not given) + Cc1ccccc1N=Nc1ccc(NC(=O)c2ccnn2C)c(C)c1
viability, T/C (second compound 0.1 µM, first compound 0.000949 µM): 96.4% | viability, T/C (second compound 0.1 µM, first compound 0.003 µM): 98.8% | viability, T/C [31]: 98.2% | viability, T/C [32]: 101% | viability, T/C [33]: 95.3% | viability, T/C [34]: 85.8% | viability, T/C (second compound 0.316 µM, first compound 0.000949 µM): 98.6% | viability, T/C (second compound 0.316 µM, first compound 0.003 µM): 105% | viability, T/C [35]: 105% | viability, T/C [36]: 105% | viability, T/C [37]: 92.8% | viability, T/C [38]: 95.4% | viability, T/C (second compound 1 µM, first compound 0.000949 µM): 107% | viability, T/C (second compound 1 µM, first compound 0.003 µM): 102% | viability, T/C [39]: 109% | viability, T/C [40]: 109% | viability, T/C [41]: 88.2% | viability, T/C [42]: 88.7% | viability, T/C (second compound 3.16 µM, first compound 0.000949 µM): 102% | viability, T/C (second compound 3.16 µM, first compound 0.003 µM): 100% | viability, T/C [43]: 95.1% | viability, T/C [44]: 94.4% | viability, T/C [45]: 95.8% | viability, T/C [46]: 82% | viability, T/C (second compound 10 µM, first compound 0.000949 µM): 101% | viability, T/C (second compound 10 µM, first compound 0.003 µM): 103% | viability, T/C [47]: 110% | viability, T/C [48]: 95.6% | viability, T/C [49]: 107% | viability, T/C [50]: 103%
